Results published in patent publication US20230085307A1, “PYRIDAZINONE COMPOUND AND HERBICIDE” (NISSAN CHEMICAL CORPORATION, priority 2019, published 2023).

How the values were obtained:
southern crabgrass = assay: Test Example 5: herbicidal effect by foliage application, plastic box (Table 20, symbol F); format: in vivo, southern crabgrass (Digitaria ciliaris); conditions: foliage application after 14-day growth, evaluated three weeks after application
Outline: (§1)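 Sow seeds spot-wise in sterilized diluvial soil; cover with ~1.5 cm soil. Grow 14 days in greenhouse, 25° C. to 30° C. Spray foliage with emulsion diluted to predetermined amount. Rate effect after 3 weeks.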

green foxtail = assay: Test Example 5: herbicidal effect by foliage application, plastic box (Table 20, symbol G); format: in vivo, green foxtail (Setaria viridis); conditions: foliage application after 14-day growth, evaluated three weeks after application
Outline: as §1

wild oat = assay: Test Example 5: herbicidal effect by foliage application, plastic box (Table 20, symbol I); format: in vivo, wild oat (Avena fatua); conditions: foliage application after 14-day growth, evaluated three weeks after application
Outline: as §1

oval-leafed pondweed [1] = assay: Test Example 1: herbicidal activity, application before weed generation under submerged conditions (Table 16, symbol C); format: in vivo, oval-leafed pondweed (Monochoria vaginalis); conditions: amount of applied herbicide 320 g/ha
Outline: (§2)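 Emulsion formulation, water-diluted to set dose, was put onto the flooded surface (4 cm depth, alluvial soil) the same day weeds were sown and 2.5-leaf rice transplanted. After 3 weeks at 25-30 °C under glass, each species was rated 0 (≤5% kill) to 5 (≥90% kill).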

oval-leafed pondweed [2] = assay: Test Example 2: herbicidal activity, application during weed generation under submerged conditions (Table 17, symbol C); format: in vivo, oval-leafed pondweed (Monochoria vaginalis); conditions: AAH 320 g/ha; application during weed generation, submerged conditions
Outline: (§3)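 In this pot test, flooded alluvial soil (water depth 4 cm) holds all three species sown as a mixture. Once seedlings have one to two leaves, the compound's emulsion, thinned with water to the intended dose, is poured on the water; grading follows after three weeks on the earlier criteria.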

redroot pigweed = assay: Test Example 5: herbicidal effect by foliage application, plastic box (Table 20, symbol N); format: in vivo, redroot pigweed (Amaranthus retroflexus); conditions: foliage application after 14-day growth, evaluated three weeks after application
Outline: as §1

velvetleaf = assay: Test Example 5: herbicidal effect by foliage application, plastic box (Table 20, symbol M); format: in vivo, velvetleaf (Abutilon theophrasti); conditions: foliage application after 14-day growth, evaluated three weeks after application
Outline: as §1

barnyard grass [3] = assay: Test Example 3: herbicidal effect by foliage application, Wagner pot (Table 18, symbol H); format: in vivo, barnyard grass (Echinochloa crus-galli); conditions: 320 g/ha
Outline: (§4)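 Plants were sown in alluvial soil held under 0.1–0.5 cm standing water and grown 14 days in a greenhouse at 25–30 °C. An emulsifiable formulation, water-diluted to the set dose, was then sprayed onto the foliage, and effects were scored three weeks later using previously defined criteria.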

rice flat sedge = assay: Test Example 3: herbicidal effect by foliage application, Wagner pot (Table 18, symbol E); format: in vivo, rice flat sedge (Cyperus iria); conditions: 320 g/ha
Outline: as §4

persian speedwell = assay: Test Example 5: herbicidal effect by foliage application, plastic box (Table 20, symbol R); format: in vivo, Persian speedwell (Veronica persica); conditions: foliage application after 14-day growth, evaluated three weeks after application
Outline: as §1

Italian ryegrass = assay: Test Example 5: herbicidal effect by foliage application, plastic box (Table 20, symbol K); format: in vivo, Italian ryegrass (Lolium multiflorum); conditions: 320 g/ha, foliage application after 14-day growth, evaluated three weeks after application
Outline: as §1

chickweed = assay: Test Example 5: herbicidal effect by foliage application, plastic box (Table 20, symbol P); format: in vivo, common chickweed (Stellaria media); conditions: foliage application after 14-day growth, evaluated three weeks after application
Outline: as §1

barnyard grass [4] = assay: Test Example 5: herbicidal effect by foliage application, plastic box (Table 20, symbol H); format: in vivo, barnyard grass (Echinochloa crus-galli); conditions: foliage application after 14-day growth, evaluated three weeks after application
Outline: as §1

windgrass = assay: Test Example 5: herbicidal effect by foliage application, plastic box (Table 20, symbol L); format: in vivo, windgrass (Apera spica-venti); conditions: foliage application after 14-day growth, evaluated three weeks after application
Outline: as §1

late watergrass [5] = assay: Test Example 1: herbicidal activity, application before weed generation under submerged conditions (Table 16, symbol A); format: in vivo, late watergrass (Echinochloa oryzicola); conditions: amount of applied herbicide 320 g/ha
Outline: as §2

blackgrass = assay: Test Example 5: herbicidal effect by foliage application, plastic box (Table 20, symbol J); format: in vivo, blackgrass (Alopecurus myosuroides); conditions: foliage application after 14-day growth, evaluated three weeks after application
Outline: as §1

Japanese bulrush [6] = assay: Test Example 1: herbicidal activity, application before weed generation under submerged conditions (Table 16, symbol B); format: in vivo, Japanese bulrush (Schoenoplectus juncoides); conditions: amount of applied herbicide 320 g/ha
Outline: as §2

Japanese bulrush [7] = assay: Test Example 2: herbicidal activity, application during weed generation under submerged conditions (Table 17, symbol B); format: in vivo, Japanese bulrush (Schoenoplectus juncoides); conditions: AAH 320 g/ha; application during weed generation, submerged conditions
Outline: as §3

Chinese sprangletop = assay: Test Example 3: herbicidal effect by foliage application, Wagner pot (Table 18, symbol D); format: in vivo, chinese sprangletop (Leptochloa chinensis); conditions: 320 g/ha
Outline: as §4

lambsquarters = assay: Test Example 5: herbicidal effect by foliage application, plastic box (Table 20, symbol O); format: in vivo, lambsquarters (Chenopodium album); conditions: foliage application after 14-day growth, evaluated three weeks after application
Outline: as §1

late watergrass [8] = assay: Test Example 2: herbicidal activity, application during weed generation under submerged conditions (Table 17, symbol A); format: in vivo, late watergrass (Echinochloa oryzicola); conditions: AAH 320 g/ha; application during weed generation, submerged conditions
Outline: as §3

[9] = amount of applied herbicide 320 g/ha

In the case of CCCC(=O)Oc1c(C)nn(C)c(=O)c1-c1c(-c2ccc(C)cc2)sc2c(Cl)cccc12 [4-020], the “herbicidal effect on F: southern crabgrass (evaluation grade 0-5)” value (southern crabgrass; 320 g/ha) is reported as 0 (Herbicidal rate of 5% or less (almost no effect)), the “herbicidal effect on G: green foxtail (evaluation grade 0-5)” value (green foxtail; 320 g/ha) is reported as 0 (Herbicidal rate of 5% or less (almost no effect)) and the “herbicidal effect on I: wild oat (evaluation grade 0-5)” value (wild oat; 320 g/ha) is reported as 3 (Herbicidal rate of 40% or more and less than 70%). The “Herbicidal effect, C: oval-leafed pondweed” value (oval-leafed pondweed [1]) was 0 (Herbicidal rate of 5% or less (almost no effect)), the “herbicidal effect rating, C: oval-leafed pondweed” value (oval-leafed pondweed [2]) was 0 (Herbicidal rate of 5% or less (almost no effect)) and the “herbicidal effect on N: redroot pigweed (evaluation grade 0-5)” value (redroot pigweed; 320 g/ha) was 5 (Herbicidal rate of 90% or more (almost completely withered)). The “herbicidal effect on M: velvetleaf (evaluation grade 0-5)” value (velvetleaf; 320 g/ha) was 5 (Herbicidal rate of 90% or more (almost completely withered)), the “herbicidal effect on barnyard grass (H)” value (barnyard grass [3]) was 4 (Herbicidal rate of 70% or more and less than 90%) and the “herbicidal effect on rice flat sedge (E)” value (rice flat sedge) was 5 (Herbicidal rate of 90% or more (almost completely withered)). For the same compound, the “herbicidal effect on R: persian speedwell (evaluation grade 0-5)” value (persian speedwell; 320 g/ha) was 5 (Herbicidal rate of 90% or more (almost completely withered)), the “herbicidal effect on K: Italian ryegrass (evaluation grade 0-5)” value (Italian ryegrass) was 4 (Herbicidal rate of 70% or more and less than 90%) and the “herbicidal effect on P: chickweed (evaluation grade 0-5)” value (chickweed; 320 g/ha) was 5 (Herbicidal rate of 90% or more (almost completely withered)). The “herbicidal effect on H: barnyard grass (evaluation grade 0-5)” value (barnyard grass [4]; 320 g/ha) was 0 (Herbicidal rate of 5% or less (almost no effect)), the “herbicidal effect on L: windgrass (evaluation grade 0-5)” value (windgrass; 320 g/ha) was 5 (Herbicidal rate of 90% or more (almost completely withered)) and the “Herbicidal effect, A: late watergrass” value (late watergrass [5]) was 4 (Herbicidal rate of 70% or more and less than 90%). For the same compound, the “herbicidal effect on J: blackgrass (evaluation grade 0-5)” value (blackgrass; 320 g/ha) was 0 (Herbicidal rate of 5% or less (almost no effect)), the “Herbicidal effect, B: Japanese bulrush” value (Japanese bulrush [6]) was 3 (Herbicidal rate of 40% or more and less than 70%) and the “herbicidal effect rating, B: Japanese bulrush” value (Japanese bulrush [7]) was 3 (Herbicidal rate of 40% or more and less than 70%). The “herbicidal effect on Chinese sprangletop (D)” value (Chinese sprangletop) was 5 (Herbicidal rate of 90% or more (almost completely withered)), the “herbicidal effect on O: lambsquarters (evaluation grade 0-5)” value (lambsquarters; 320 g/ha) was 2 (Herbicidal rate of 20% or more and less than 40%) and the “herbicidal effect rating, A: late watergrass” value (late watergrass [8]) was 0 (Herbicidal rate of 5% or less (almost no effect)).

With CCCC(=O)Oc1c(C)nn(C)c(=O)c1-c1c(-c2ccc(C(F)(F)F)cc2)sc2cc(F)c(F)cc12 [5-008] the “Herbicidal effect by foliage application, F: southern crabgrass” value (southern crabgrass; [9]) was 0 (Herbicidal rate of 5% or less (almost no effect)), the “Herbicidal effect by foliage application, G: green foxtail” value (green foxtail; [9]) was 0 (Herbicidal rate of 5% or less (almost no effect)) and the “Herbicidal effect by foliage application, I: wild oat” value (wild oat; [9]) was 0 (Herbicidal rate of 5% or less (almost no effect)). The “Herbicidal effect, C: oval-leafed pondweed” value (oval-leafed pondweed [1]) was 0 (Herbicidal rate of 5% or less (almost no effect)), the “herbicidal effect rating, C: oval-leafed pondweed” value (oval-leafed pondweed [2]) was 0 (Herbicidal rate of 5% or less (almost no effect)) and the “Herbicidal effect by foliage application, N: redroot pigweed” value (redroot pigweed; [9]) was 3 (Herbicidal rate of 40% or more and less than 70%). For the same compound, the “Herbicidal effect by foliage application, M: velvetleaf” value (velvetleaf; [9]) was 0 (Herbicidal rate of 5% or less (almost no effect)), the “herbicidal effect on barnyard grass (H)” value (barnyard grass [3]) was 4 (Herbicidal rate of 70% or more and less than 90%) and the “herbicidal effect on rice flat sedge (E)” value (rice flat sedge) was 0 (Herbicidal rate of 5% or less (almost no effect)). The “Herbicidal effect by foliage application, R: persian speedwell” value (persian speedwell; [9]) was 3 (Herbicidal rate of 40% or more and less than 70%), the “Herbicidal effect by foliage application, P: chickweed” value (chickweed; [9]) was 4 (Herbicidal rate of 70% or more and less than 90%) and the “Herbicidal effect by foliage application, H: barnyard grass” value (barnyard grass [4]; [9]) was 0 (Herbicidal rate of 5% or less (almost no effect)). The “Herbicidal effect by foliage application, L: windgrass” value (windgrass; [9]) was 1 (Herbicidal rate of 5% or more and less than 20%), the “Herbicidal effect, A: late watergrass” value (late watergrass [5]) was 3 (Herbicidal rate of 40% or more and less than 70%) and the “Herbicidal effect by foliage application, J: blackgrass” value (blackgrass; [9]) was 0 (Herbicidal rate of 5% or less (almost no effect)). The “Herbicidal effect, B: Japanese bulrush” value (Japanese bulrush [6]) was 0 (Herbicidal rate of 5% or less (almost no effect)), the “herbicidal effect rating, B: Japanese bulrush” value (Japanese bulrush [7]) was 0 (Herbicidal rate of 5% or less (almost no effect)) and the “herbicidal effect on Chinese sprangletop (D)” value (Chinese sprangletop) was 0 (Herbicidal rate of 5% or less (almost no effect)). The “Herbicidal effect by foliage application, O: lambsquarters” value (lambsquarters; [9]) was 3 (Herbicidal rate of 40% or more and less than 70%) and the “herbicidal effect rating, A: late watergrass” value (late watergrass [8]) was 2 (Herbicidal rate of 20% or more and less than 40%).
